Patent publication US7892764B2, “System for seizure suppression” (priority 2006, dated 2011)

System: mouse hippocampal slices
Assay: Low Mg2+-induced epileptiform bursting activity (evoked and spontaneous) in hippocampal slices
Type: cell-based
Settings: Mg2+-free aCSF; for frequency of spontaneous clustered bursts / frequency of spontaneous clustered bursts relative to control: bath perfusion
Method: Limbic seizures (Avoli et al., 2002) are modeled by removing Mg^2+ from artificial cerebral spinal fluid (aCSF) in slices of hippocampal-entorhinal cortex, which triggers interictal-like bursting activity, or spontaneous ictal-like events (Wong et al., 2001; Anderson et al., 1986). In the presence of normal Mg^2+ (1.5 mM), stimulation of Schaffer collaterals induces single population spike or EPSP in the CA1 region of the hippocampus. […] Perfusion with Mg^2+-free aCSF for about 30 min evoked synchronous burst firing with the same stimulation intensity. In about, 30% of the slices, spontaneous clustered bursts developed in the absence of electrical stimulation. Bath perfusion of amiloride or PcTX1 for 10 min reduced the amplitude and frequency of evoked bursting activity (FIGS. 5A and 5B). Amiloride (100 μM) reduced the amplitude of the first and the second population spikes (from 1.2±0.2 mV to 0.5±0.2 mV and 0.6±0.03 mV to 0.2±0.05 mV, respectively (n=9: p<0.01, FIGS. 5A and 5B), and the number of population spikes (from 4.7±0.6 to 3.3±0.8, n=9, p<0.05)). Similarly, PcTX1 (200 ng/mL) attenuated the amplitude of the population spike (from 2.1±0.3 to 1.6±0.2 mV, n=9, p<0.05) and the number of spikes (from 4.2±0.6 to 3.0±0.6, p<0.05).
Preparation of hippocampal slices and brain slice recording. Hippocampal slices were obtained from 8- to 10-week-old mice. The protocol for brain-slice recording was approved by the Institutional Animal Care and Use Committee of Legacy Research. Animals were deeply anesthetized with isoflurane and decapitated. Brains were quickly removed and placed in ice-cold solution that contained: 125 mM sucrose, 2.5 mM KCl, 26 mM NaHCO3, 1.25 mM NaHPO4, 6.0 mM […], 0.5 mM CaCl2, and 10 mM glucose, and was saturated with 95% O2 and 5% CO2 (pH 7.4). Hippocamnpal slices were cut in 400 μm thickness in transverse plane with a vibratome (Leica VT 1000S) and placed in a slice holding chamber (BSC-PC Prechamber, Warner Instrument) and incubated in normal artificial cerebral spinal fluid (aCSF) that contained: 125 mM NaCl, 2.5 mM KCl, 26 mM NaHCO3, 1.25 mM […], 1.0 mM MgSO4, 2.0 mM CaCl2, and 10 mM glucose, and was saturated with 95% O2 and 5% CO2 (pH 7.4).
Following ˜60 min of incubation at room temperature, individual slices were transferred to a submerged slice chamber with a volume of 0.5 mL (Warner Instruments, Hamden, Conn.) and perfused with oxygenated aCSF (35° C.) at a rate of 3-4 mL/min. Recording electrodes were pulled from borosilicate glass and filled with aCSF. The population spike and the field excitatory postsynaptic potentials (fEPSP) were recorded in stratum pyramidale and striatum radiatum of hippocampal CA1 region, by stimulating Schaffer Collaterals.
For low Mg^2+ induced epileptic burst activity, Mg^2+-free aCSF was perfused to the slices for ˜30 min. For stimulus-train induced bursting discharges (STIB), each stimulation train consisted of 120 pulses at 60 Hz and each pulse was 100 μsec in duration (Stasheff et al., 1985). A 10-minute interval of non-stimulation was provided between successive trains of high frequency stimulation. Stimulation electrodes were located in striatum radiatum between CA1 and CA3 region. The population spikes were recorded from striatum pyramidale of the CA3 region.
Pharmacological and electrical bursting models. To induce epileptic burst discharges, Mg^2+-free aCSF was applied. Mg^2+-free aCSF was obtained by simply omitting MgSO4 from aCSF.

[1] = 100 μM amiloride, bath perfusion 10 min, evoked
[2] = PcTX1 200 ng/mL, bath perfusion 10 min, evoked

NC(N)=NC(=O)c1nc(Cl)c(N)nc1N [amiloride, 3,5-diamino-6-chloro-N(diaminomethylidene)pyrazine-2-carboxamide] was tested, and the “amplitude of the first population spike” value [1] was 0.5±0.2 mV, the “amplitude of the second population spike” value [1] was 0.2±0.05 mV and the “number of population spikes” value [1] was 3.3±0.8. For the same molecule, the “frequency of spontaneous clustered bursts” value was 26.0 ± 5.8 min⁻¹ and the “frequency of spontaneous clustered bursts relative to control” value was 0.84±0.05 of control.
For Psalmotoxin 1 [PcTX1], the “frequency of spontaneous clustered bursts” value was 59.9 ± 11.3 min⁻¹, the “frequency of spontaneous clustered bursts relative to control” value was 0.68±0.07 of control and the “amplitude of the population spike” value [2] was 1.6±0.2 mV. For the same molecule, the number of spikes [2] was 3.0±0.6.
